The values below come from patent US9346832B2, “Gold complexes for use in the treatment of cancer” (University of Kwazulu-Natal, priority 2010, dated 2016).

In general, IC50 refers to the point on the concentration scale where inhibition reaches its midpoint. Usually GI50 stands for the concentration giving 50% growth inhibition.

Read-outs that look alike come from different tables or passages of the source.

Data set [1] is described as follows: Hydrolysis in aqueous solution. In kind it is physicochemical. The following applies: aqueous / phosphate buffered aqueous solutions. The source says: This is why binding to DNA of the intact chelate occurs (FIGS. 14 and 20). However, it is noteworthy that hydrolysis of a Au(III)-Npyrrole bond is a reaction that may be catalyzed by enzymes in plasma and could account for the plasma instability of MA_AuPr.

The test system of data set [2] is panel of human cancer cell lines. As to conditions: cited from earlier work.
Data set [3] concerns 60 human cancer cell lines. The experiment in a line: NCI-60 five-dose screen, mean cytotoxicity over 60 human cancer cell lines. In kind it is cell-based. As to conditions: mean over 60 human cancer cell lines. Here is the method: (§1) The gold(III) complexes of this invention were screened by the National Cancer Institute (NCI, USA) against their panel of 60 different human cancer cell lines. These screens initially entail a one-dose test for the compound at a high concentration (10 μM; e.g. FIGS. 5, 6 and 7). Compounds with a good cytotoxicity profile in the one-dose screen are then subjected to a five-dose screen for the full panel of sixty human cancer cell lines (the so-called 5-dose NCI-60 screen). In the full five-dose screen, the compound concentration is varied in five doses from 10^−8 M to 10^−4 M in order to establish a dose-response function of percentage cell growth versus the concentration of the test agent. […] Similar data will shortly be available for compounds 1.1Y^1b and 1.5Y^1a as these derivatives are in 5-dose screens currently at the NCI.
The mean cytotoxicity data summarized in Scheme 7 were compiled over 60 human cancer cell lines from the NCI database. […] The dose-response curves for the bis(pyrrolide-imine) chelates of the invention are steeper, or harder, than those of all the compounds compared in Scheme 7.

The test system of data set [4] is 60 human cancer cell lines. The data set can be described thus: NCI-60 one-dose screen. As to conditions: single dose 10 μM. In kind it is cell-based. Here is the method: as §1
The results of one-dose NCI-60 screens are noteworthy and merit some discussion as they quickly indicate activity profiles, cell-line specificity, and general cytotoxicity for the test agents across multiple human cancer cell lines. FIGS. 5, 6, and 7 set out the one-dose screening results for MA_AuPr (FIG. 5), KA_AumacroPr (FIG. 6), and KA_AuMelmPr (FIG. 7) obtained by the NCI. These three compounds are the parent derivatives that are representative of the three new types of gold(III) Schiff base chelate relevant to this invention. All other compounds synthesized as part of this invention have been similarly analyzed.

The test system of the next data set is calf thymus DNA. The data set can be described thus: Calf-thymus DNA titration (absorption hypochroism). Type of data set: binding. Here is the method:
FIG. 20 is a graph of the titration of MA_AuPr (1.1a) with calf-thymus DNA in aqueous pH 7 phosphate buffer at 37° C.
The hypochroism of the absorption band of the complex at 383 nm was monitored as a function of added ctDNA. […] Ka is the equilibrium binding constant in M^−1, Ct is the total Au(III) complex concentration, and s is the binding site size.

The target in data set [5] is topoisomerase II (topo II) (Homo sapiens, UniProt P11388). The experiment in a line: Topoisomerase II (topo II) DNA cleavage assay with kinetoplast DNA, agarose gel. Type of data set: biochemical. The protocol: FIG. 18 is a photograph of an agarose gel electrophoresis topoisomerase II (topo II) DNA cleavage assay (66 ng kinetoplast DNA, 4 U topo II) as a function of the concentration of KA_AumacroPr (complex 1.1Y^1a) (top) and a graph of a standard dose-response function fit of the experimental titration data (top gel) with (solid line) and without (dashed line) a Hill coefficient. The maximum ESD from triplicate measurements is shown (15%). Lanes 1-4 of the gel contain catenated DNA (no topo II), decatenated DNA (topo II present), decatenated DNA (solvent control), and linear DNA, respectively. The lane marked VP-16 contained DNA, topo II, and etoposide (VP-16). Band labels: I, catenated DNA; II, open-circular (OC) DNA; III, linear DNA; IV, closed-covalently circular (CCC) DNA. […]
The topo II inhibition assay for the Au(III) macrocycle KA_AumacroPr is shown above in FIG. 18.

The target of a further data set is T1, topoisomerase I (Homo sapiens, UniProt P11387).
T1 sequence (P11387 1-765): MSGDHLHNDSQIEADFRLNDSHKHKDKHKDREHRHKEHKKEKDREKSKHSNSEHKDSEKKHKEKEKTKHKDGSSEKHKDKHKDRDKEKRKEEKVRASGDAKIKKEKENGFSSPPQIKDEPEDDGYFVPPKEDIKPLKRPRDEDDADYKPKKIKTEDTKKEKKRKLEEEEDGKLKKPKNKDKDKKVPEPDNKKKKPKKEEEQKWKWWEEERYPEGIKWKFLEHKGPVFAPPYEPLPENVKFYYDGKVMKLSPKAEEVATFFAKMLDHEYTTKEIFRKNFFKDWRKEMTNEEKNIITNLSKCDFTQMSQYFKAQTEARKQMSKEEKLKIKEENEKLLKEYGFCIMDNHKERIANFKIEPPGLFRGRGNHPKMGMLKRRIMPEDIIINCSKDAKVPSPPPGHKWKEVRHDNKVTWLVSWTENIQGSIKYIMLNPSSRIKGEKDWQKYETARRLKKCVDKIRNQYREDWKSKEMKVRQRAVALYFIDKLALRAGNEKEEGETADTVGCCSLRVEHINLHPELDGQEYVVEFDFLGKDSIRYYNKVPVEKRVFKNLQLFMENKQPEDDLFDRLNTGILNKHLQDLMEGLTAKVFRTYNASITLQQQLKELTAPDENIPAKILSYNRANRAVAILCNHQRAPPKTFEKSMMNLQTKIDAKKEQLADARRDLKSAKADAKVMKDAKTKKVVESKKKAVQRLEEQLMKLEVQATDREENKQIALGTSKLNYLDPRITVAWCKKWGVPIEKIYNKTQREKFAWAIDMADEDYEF
The data set can be described thus: Supercoiled plasmid DNA relaxation assay with human topoisomerase I. Type of data set: biochemical. The protocol:
FIG. 19 is a photograph of a gel showing the inhibition of human topoisomerase I by KA_AumacroPr as determined by supercoiled plasmid DNA relaxation assay (agarose gel electrophoresis).
Lanes 2-12 have 5U of topoisomerase I. The enzyme fully relaxes supercoiled (SC) DNA in lanes 3-8 for KA_AumacroPr concentrations ranging from 0-50 nM.
This is consistent with strong intercalative binding of KA_AumacroPr to the plasmid DNA probably before and after the action of topoisomerase I, and consequently inhibition of its normal turnover cycle.

Data set [6] has as its system 60 human cancer cell lines. As to conditions: comparison drugs, NCI database, mean over 60 cell lines, cited from earlier work.
For data set [7], the system named is 3LL tumor (Lewis lung carcinoma). The data set can be described thus: 3LL tumor growth in black mice. The following applies: 20 days, 26 μmol/kg once weekly.
The test system of a further data set is HeLa cells. The data set can be described thus: HeLa cell cytotoxicity dose-response. Type of data set: cell-based. The protocol: FIG. 9 is a graph of the dose-response curves (HeLa cells, pH 7.0, 37° C.) for three macrocyclic Au(III) chelates. IC50 values for the complexes against HeLa cells obtained from the least squares data fits (graph) are given in the 3rd column of the table.
A summary of the average cytotoxicity data over 60 human cancer cell lines for 1.1a-1.1c and comparison with selected commercial and patented cytotoxic agents is shown in Scheme 7. […] The more abrupt the curve, the harder the dose-response function.

The test system of another data set is human cancer cell lines. The experiment in a line: Cytotoxicity summary (NCI-60 or independent cytotoxicity screen), Scheme 19. In kind it is cell-based.

Chain of topoisomerase II (topo II) (P11388 whole entry): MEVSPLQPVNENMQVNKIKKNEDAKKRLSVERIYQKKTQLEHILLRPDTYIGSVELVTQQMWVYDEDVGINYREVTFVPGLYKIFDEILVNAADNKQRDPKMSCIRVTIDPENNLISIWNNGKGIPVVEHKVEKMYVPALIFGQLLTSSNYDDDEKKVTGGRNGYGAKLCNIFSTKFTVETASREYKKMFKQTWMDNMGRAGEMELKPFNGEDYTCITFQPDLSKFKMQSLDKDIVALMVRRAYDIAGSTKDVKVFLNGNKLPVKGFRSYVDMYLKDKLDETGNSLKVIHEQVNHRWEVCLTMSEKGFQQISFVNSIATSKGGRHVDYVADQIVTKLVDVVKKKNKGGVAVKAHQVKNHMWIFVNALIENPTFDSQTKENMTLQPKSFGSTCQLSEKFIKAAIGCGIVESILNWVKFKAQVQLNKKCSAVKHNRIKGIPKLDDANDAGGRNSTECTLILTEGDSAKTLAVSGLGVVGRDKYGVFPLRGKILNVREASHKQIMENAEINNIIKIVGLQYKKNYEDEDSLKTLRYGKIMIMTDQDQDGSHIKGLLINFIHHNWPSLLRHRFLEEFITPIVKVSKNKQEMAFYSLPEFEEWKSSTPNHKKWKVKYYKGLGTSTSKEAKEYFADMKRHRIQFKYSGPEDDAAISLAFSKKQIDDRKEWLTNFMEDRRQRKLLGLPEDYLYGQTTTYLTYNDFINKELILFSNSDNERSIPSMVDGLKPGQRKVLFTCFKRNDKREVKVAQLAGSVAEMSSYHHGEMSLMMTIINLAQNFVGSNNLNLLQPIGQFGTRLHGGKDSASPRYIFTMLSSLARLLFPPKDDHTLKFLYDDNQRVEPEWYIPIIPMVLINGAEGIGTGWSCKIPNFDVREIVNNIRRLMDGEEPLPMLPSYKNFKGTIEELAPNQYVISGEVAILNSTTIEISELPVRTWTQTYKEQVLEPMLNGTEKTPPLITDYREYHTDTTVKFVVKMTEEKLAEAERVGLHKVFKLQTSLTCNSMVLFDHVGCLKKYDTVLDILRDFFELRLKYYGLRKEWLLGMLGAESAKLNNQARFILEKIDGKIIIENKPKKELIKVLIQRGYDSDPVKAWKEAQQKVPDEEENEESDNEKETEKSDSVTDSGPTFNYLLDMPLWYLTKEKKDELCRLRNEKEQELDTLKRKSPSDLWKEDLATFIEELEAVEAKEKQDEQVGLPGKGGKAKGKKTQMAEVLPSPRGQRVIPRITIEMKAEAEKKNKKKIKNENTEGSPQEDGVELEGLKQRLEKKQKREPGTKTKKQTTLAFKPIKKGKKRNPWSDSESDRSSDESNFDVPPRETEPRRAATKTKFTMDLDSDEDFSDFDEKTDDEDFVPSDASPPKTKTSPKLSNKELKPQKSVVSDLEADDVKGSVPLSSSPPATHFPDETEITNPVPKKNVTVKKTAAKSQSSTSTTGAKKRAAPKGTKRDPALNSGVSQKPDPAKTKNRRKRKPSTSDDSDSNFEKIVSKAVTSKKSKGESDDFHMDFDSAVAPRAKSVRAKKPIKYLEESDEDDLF

`C1=[N+]2CC[N+]3=Cc4ccc[n]4[Au-]23[n]2cccc21.F[P-](F)(F)(F)(F)F` [Compound 1.2a, 2,2′-{ethane-1,2-diylbis[nitrilo(E)methylylidene]}bis(pyrrol-1-ido)gold(III) hexafluorophosphate(V)]: in [1], the hydrolysis result is reported as “water may displace a pyrrole ring from the Au(III) ion”.

Regarding `C1=Cc2nc1c(-c1ccccc1)c1ccc([nH]1)c(-c1ccccc1)c1nc(c(-c3ccccc3)c3ccc([nH]3)c2-c2ccccc2)C=C1` [[Zn^II(TPP)]], the IC50 in data set [2] (literature values) was > 50 µM.

With `F[P-](F)(F)(F)(F)F.OC1CN=Cc2ccc[n]2[Au+][n]2cccc2C=NC1` (stereo not drawn) [MA_AuOH, 2,2{(2-hydroxypropane-1,3-diyl)bis[nitrilo(E)methyl-ylidene]}bis(pyrrol-1-ido)gold(III) hexafluorophosphate(V)], in data set [3] (50% cell death, read-out: LC50 (the source's name)), the CC50 is > 100 µM. Moreover, the GI50 in data set [3] (50% growth inhibition) was > 100 µM. Besides, the TGI (concentration for total growth inhibition) in data set [3] (100% (total) growth inhibition, read-out: TGI or IC50) is > 100 µM. Also, in data set [4], the one-dose screening result is on record as “not sufficiently active”. The “Ka (calf thymus DNA)” value in the data set on calf thymus DNA (MA series: pH 7.0 phosphate buffer at 37° C.) is listed as 1.43(3) × 10^5 M^−1.

Turning to `C1=[N+]2CCC[N+]3=Cc4ccc5[n]4[Au-]23[n]2c1ccc2-c1nc2ccccc2nc1-5.F[P-](F)(F)(F)(F)F` [KA_AumacroPr, {12,13-dihydro-14H-6,9:17,20-diepimino[1,6]diazacyclo-heptadecino[12,13-β]quinoxalinato}gold(III) hexafluorophosphate(V)], the one-dose screening result in data set [4] is listed as “good cytotoxicity for the majority of the cell lines”. For the same compound, the IC50 in data set [5] (66 ng kinetoplast DNA, 4 U topo II, read-out: IC50 (enzyme inhibition)) was found to be 4.8 µM. The “action on topo II” value in data set [5] (no trapped linear DNA cleavage products) is recorded as “pure catalytic inhibitor”. Also, at topoisomerase I, the “action on human topoisomerase I” value was “interferes with the normal operation of human topoisomerase I”. Further, the “concentrations at which the enzyme fully relaxes supercoiled DNA” value at topoisomerase I (5U topoisomerase I) was in the range of 0 to 50 nM. Also, the “concentrations at which topoisomerase I exhibits abnormal and incomplete substrate relaxation” value at topoisomerase I (5U topoisomerase I, up to 500 μM) is ≥ 500 nM.

As to `N.N.[Cl][Pt][Cl]` [cisplatin, cis-[PtCl2(NH3)2]], the GI50 in data set [6] (50% growth inhibition) was 2 µM. The IC50 in data set [6] (read-out: TGI or IC50, total growth inhibition) was 27 µM. Further, the “reduction of 3LL tumor growth rate” value in [7] was determined as 76%.

In the case of `C1=Cc2nc1c(-c1ccccc1)c1ccc([n-]1)c(-c1ccccc1)c1nc(c(-c3ccccc3)c3ccc([n-]3)c2-c2ccccc2)C=C1.[Au+3].[Cl-]` [[Au(TPP)]Cl], in data set [2] (MTT assay, PBMCs and CCD-19Lu cells), the “cytotoxicity to cancer cells versus non-cancerous cells” value was “at least ten-fold higher cytotoxicity”.

As for “4,4′-{propane-1,3-diylbis[nitrilo(E)methylylide]}bis(5-methylimidazol-1-ide)gold(III) hexafluorophosphate(V) [KA_AuMelmPr]”, the one-dose screening result in data set [4] is “Breast and leukemia cell lines were, as a group, the most sensitive”.

In the case of `ClC1CN=Cc2ccc3[n]2[Au+][n]2c(ccc2-c2nc4ccccc4nc2-3)C=NC1.F[P-](F)(F)(F)(F)F` (stereo not drawn) [Compound 1.1Y^1e, {13-chloro-12,14-dihydro-6,9:17,20-diepimino[1,6]diazacyclo-heptadecino[12,13-β]quinoxalinato}gold(III) hexafluorophosphate(V)], the 50% growth inhibitory concentration (GI50) in the data set on HeLa cells is ~0.1 µM. Further, the IC50 in the data set on HeLa cells (pH 7.0, 37° C.) is ~3 µM. Further, the “action on human topoisomerase I” value on topoisomerase I (listed as 1.1Y^1b) is recorded as “catalytic inhibitor of human topoisomerase I”. Further, the “Ka (calf thymus DNA)” value with calf thymus DNA (KA series: pH 7.0 15% DMSO-TRIS buffer at 25° C., listed as 1.1Y^1a) was 2.8(2) × 10^6 M^−1; with calf thymus DNA (KA series: pH 7.0 15% DMSO-TRIS buffer at 25° C., listed as 1.1Y^1b) it was 1.49(8) × 10^6 M^−1. Besides, the Cytotoxicity entry with human cancer cell lines was “active”.
